The record followed here is paper PMC11181328 (Journal of Medicinal Chemistry, 2024).

The structures appear in SMILES notation. Structures can show the parent of a compound that is named as a salt. Where only a bound is given, the exact number is not on record here.

Data set [1] has as its system male Swiss Webster mice. Put plainly: Warm-water tail immersion assay, time course study. The data set is classed as in vivo, mouse. Particulars: morphine 10 mg/kg s.c.
The test system of data set [2] is male Swiss Webster mice. Put plainly: Warm-water tail immersion assay, agonism (single dose screen and potency). The data set is classed as in vivo, mouse. Particulars: for percent MPE / antinociception compared to the vehicle group: single dose 10 mg/kg s.c.; for percent MPE: withdrawal latency 20 min after administration; for antinociception compared to the vehicle group: 20 min; for ED50: Mus musculus, sc, read-out: potency ED50 [95% CI] mg/kg, s.c., 20 min prior to tail withdrawal latency measurement, male Swiss Webster mice.

The target in data set [3] is T1, KOR (Mus musculus, UniProt P33534).
T1 construct: expressed in transfected cells; membrane homogenate
Put plainly: [35S]-GTPγS functional assay, KOR. In kind it is biochemical. Particulars: for EC50: mKOR-CHO membranes; for Emax: percent of U50,488 full agonist control.

For data set [4], the target named is T2, DOR (Homo sapiens, UniProt P41143).
T2 construct: expressed in transfected cells; membrane homogenate
Put plainly: [35S]-GTPγS functional assay, DOR. The data set is classed as biochemical. Particulars: for EC50: hDOR-CHO membranes; for Emax: percent of SNC80 full agonist control.

In data set [5] the target is T3, MOR (Mus musculus, UniProt P42866). Put plainly: [35S]-GTPγS functional assay, MOR. In kind it is biochemical. Details: expressed in transfected cells; membrane homogenate. The following applies: for EC50: mMOR-CHO membranes; for Emax: read-out: [35S]-GTPγS functional activity MOR Emax (%).
The target in data set [6] is T2, DOR. Put plainly: Competitive radioligand binding assay, DOR.
Data set [7] addresses T1, KOR. Put plainly: Competitive radioligand binding assay, KOR. Particulars: for selectivity ratio δ/κ / selectivity ratio μ/κ: ratio of Ki values; for radioligand binding affinity (Ki, nM) KOR: [3H]diprenorphine, mKOR-CHO membranes.
In data set [8] the target is T3, MOR. Put plainly: Competitive radioligand binding assay, MOR. On the set-up: expressed in transfected cells; membrane homogenate. The following applies: for radioligand binding affinity (Ki, nM) MOR: [3H]naloxone, mMOR-CHO membranes.
A short description of data set [9]: in vitro. The following applies: Sprague-Dawley, rat, s9.
Data set [10] in a line: in vitro. The following applies: human, s9.

In the case of `CN1CC[C@]23c4c5ccc(O)c4O[C@H]2[C@@H](O)C=C[C@H]3[C@H]1C5` [morphine, (-)-Morphine sulfate pentahydrate, reference compound], in the data set with male Swiss Webster mice [1], the “effects back to baseline” value came to 5 h and the “time of significant antinociception postinjection” value lay in the range of 30 to 60 min. The “percent MPE” value with male Swiss Webster mice [2] stood at 100%.
Turning to `O=C(CCc1ccco1)N[C@H]1CC[C@@]2(O)[C@H]3Cc4cccc5c4[C@@]2(CCN3CC2CC2)[C@H]1O5` [Compound 10, 17-Cyclopropylmethyl-4,5α-epoxy-6α-[3′-(furan-2″-yl)propanamido]-14β-hydroxymorphinan Hydrochloride], on KOR [3], the response was half-maximal at 0.442 ± 0.0299 µM (EC50) and the Emax came to 86.5 ± 1.55%. For the same molecule, on DOR [4], the EC50 came out at 0.348 ± 0.0402 µM and the Emax was over 80%. Besides, on MOR [5], the EC50 turned out to be 0.278 ± 0.107 µM and the Emax was found to be 10.2 ± 1.33%. On DOR [6], this molecule displayed a Ki of 0.0902 ± 0.013 µM. Moreover, at KOR [7], affinity was put at a Ki of 0.0738 ± 0.0122 µM, the “selectivity ratio δ/κ” value is 1 and the “selectivity ratio μ/κ” value turned out to be 1. In addition, at KOR [7] (supplement csv), the “Selectivity Ratio DOR/KOR” value is 1 and the “Selectivity Ratio MOR/KOR” value amounted to 1. The Ki at MOR [8] stood at 0.0531 ± 0.00606 µM. Further, in the data set on male Swiss Webster mice [2], the “antinociception compared to the vehicle group” value was “lack of significant antinociceptive effect”.
At KOR [3], `CN(C(=O)CCc1ccoc1)[C@@H]1CC[C@@]2(O)[C@H]3Cc4ccc(O)c5c4[C@@]2(CCN3CC2CC2)[C@H]1O5` [Compound 7, 17-Cyclopropylmethyl-3,14β-dihydroxy-4,5α-epoxy-6β-[3′-(furan-3″-yl)-N-methylpropanamido]morphinan Hydrochloride] displayed an EC50 of 0.00099 ± 4e-05 µM and a maximal response (Emax) of 102 ± 1.05%. On DOR [4], this molecule returned an EC50 of 0.0192 ± 0.00162 µM and a maximum response (Emax) of 51.4 ± 2.78%. At MOR [5], a half-maximal effect (EC50) was put at 0.0043 ± 0.00047 µM and the Emax was found to be 12.2 ± 0.92%. Further, the affinity at DOR [6], expressed as Ki, was 0.00842 ± 0.0009 µM. Moreover, on KOR [7], the affinity, expressed as Ki, was 0.00028 ± 5e-05 µM and the “radioligand binding affinity (Ki, nM) KOR” value is “subnanomolar”. Moreover, on MOR [8], affinity was put at a Ki of 0.00053 ± 6e-05 µM and the “radioligand binding affinity (Ki, nM) MOR” value is “subnanomolar”. For the same molecule, in the data set on male Swiss Webster mice [2], the ED50 stood at 0.443 mg/kg and the “percent MPE” value is reported as at least 80%.
Turning to `CN(C(=O)CCc1ccco1)[C@@H]1CC[C@@]2(O)[C@H]3Cc4cccc5c4[C@@]2(CCN3CC2CC2)[C@H]1O5` [Compound 11, 17-Cyclopropylmethyl-4,5α-epoxy-6β-[3′-(furan-2″-yl)-N-methylpropanamido]-14β-hydroxymorphinan Hydrochloride], the concentration for a half-maximal effect (EC50) worked out at 0.146 ± 0.0271 µM on KOR [3], 1.1 ± 0.108 µM at DOR [4] and 5.62 ± 2.13 µM at MOR [5]. Moreover, the Emax at KOR [3] is 109 ± 5.9%; at DOR [4], 61.7 ± 4.27%; on MOR [5] it was 22.9 ± 2.39%. The values for the Ki on DOR [6], on KOR [7] and at MOR [8] were 0.532 ± 0.0925 µM, 0.0504 ± 0.00684 µM and 0.0936 ± 0.0104 µM, respectively. Further, the “selectivity ratio δ/κ” value at KOR [7] worked out at 11. Also, the “selectivity ratio μ/κ” value at KOR [7] amounted to 2. Moreover, the “antinociception compared to the vehicle group” value in the data set with male Swiss Webster mice [2] is reported as “lack of significant antinociceptive effect”.
For `O=C(/C=C/c1ccco1)N[C@@H]1CC[C@@]2(O)[C@H]3Cc4ccc(O)c5c4[C@@]2(CCN3CC2CC2)[C@H]1O5` [Compound 24, 17-Cyclopropylmethyl-3,14β-dihydroxy-4,5α-epoxy-6β-[(2E)-3′-(furan-2″-yl)prop-2-enamido]morphinan Hydrochloride], the EC50 came out at 0.00054 ± 0.00011 µM at KOR [3], 0.0131 ± 0.00209 µM on DOR [4] and 0.00676 ± 0.00199 µM on MOR [5]. Besides, the inhibition constant (Ki) on DOR [6] came out at 0.0128 ± 0.00237 µM; on KOR [7], 0.00017 ± 2e-05 µM; on MOR [8], 0.0003 ± 2e-05 µM. Also, on KOR [7], the “radioligand binding affinity (Ki, nM) KOR” value is recorded as “subnanomolar”. Also, the “radioligand binding affinity (Ki, nM) MOR” value at MOR [8] was “subnanomolar”. The ED50 in the data set on male Swiss Webster mice [2] was 3.32 mg/kg. The “percent MPE” value in the data set with male Swiss Webster mice [2] was at least 80%.
Consider `O=C(O)Cc1ccccc1Nc1c(Cl)cccc1Cl` [diclofenac, reference compound], for which the values for the half-life at 1 h, 1 µM in “in vitro [9]” and in “in vitro [10]” were 1.7 h and 0.308 h, respectively. Also, the values for the microsomal CLint at 1 h, 1 µM in “in vitro [9]” and in “in vitro [10]” were 6.8 µL/min/mg and 37.4 µL/min/mg, respectively.
As to `O=C(CCc1ccoc1)N[C@H]1CC[C@@]2(O)[C@H]3Cc4cccc5c4[C@@]2(CCN3CC2CC2)[C@H]1O5` [Compound 2, 17-Cyclopropylmethyl-4,5α-epoxy-6α-[3′-(furan-3″-yl)propanamido]-14β-hydroxymorphinan Hydrochloride], the EC50 turned out to be 1.01 ± 0.176 µM at KOR [3], 0.429 ± 0.0626 µM at DOR [4] and 0.2 ± 0.0631 µM at MOR [5]. Also, the figures for the Emax on KOR [3], on DOR [4] and at MOR [5] were 66.1 ± 5.2%, over 80% and 8.8 ± 0.55%, respectively. Besides, the Ki turned out to be 0.154 ± 0.0265 µM at DOR [6], 0.161 ± 0.0118 µM at KOR [7] and 0.0545 ± 0.00201 µM at MOR [8]. Moreover, at KOR [7], the “selectivity ratio δ/κ” value turned out to be 1. The “antinociception compared to the vehicle group” value in the data set on male Swiss Webster mice [2] was “lack of significant antinociceptive effect”.
On to `CN(C(=O)/C=C/c1ccco1)[C@H]1CC[C@@]2(O)[C@H]3Cc4cccc5c4[C@@]2(CCN3CC2CC2)[C@H]1O5` [Compound 17, 17-Cyclopropylmethyl-4,5α-epoxy-6α-[(2E)-3′-(furan-2″-yl)N-methylprop-2-enamido]-14β-hydroxymorphinan Hydrochloride], for which, on KOR [3], the EC50 was found to be 0.00597 ± 0.00042 µM and the Emax came to 110 ± 7.9%. The molecule further gave an EC50 at DOR [4] of 0.44 ± 0.0322 µM. For the same molecule, at MOR [5], the response was half-maximal at 0.125 ± 0.0171 µM (EC50) and the Emax was found to be 22.9 ± 2.01%. On DOR [6], this molecule registered a Ki of 0.0684 ± 0.0112 µM. In addition, on KOR [7], the inhibition constant Ki worked out at 0.00062 ± 4e-05 µM; the “radioligand binding affinity (Ki, nM) KOR” value is given as “subnanomolar”; the “selectivity ratio δ/κ” value is recorded as 110; the “selectivity ratio μ/κ” value was found to be 27. At MOR [8], this molecule yielded a Ki of 0.0168 ± 0.00134 µM. In the data set with male Swiss Webster mice [2], the ED50 was determined as 7.8 mg/kg and the “percent MPE” value was at least 80%.
On to `O=C(/C=C/c1ccco1)N[C@H]1CC[C@@]2(O)[C@H]3Cc4ccc(O)c5c4[C@@]2(CCN3CC2CC2)[C@H]1O5` [Compound 22, 17-Cyclopropylmethyl-3,14β-dihydroxy-4,5α-epoxy-6α-[(2E)-3′-(furan-2″-yl)prop-2-enamido]morphinan Hydrochloride], for which the EC50 at KOR [3] is 0.0137 ± 0.00252 µM; on DOR [4], 0.0211 ± 0.00141 µM; at MOR [5] it was 0.00297 ± 0.00045 µM. The Ki at DOR [6] came to 0.00875 ± 0.00058 µM; on KOR [7] it was 0.00108 ± 3e-05 µM; on MOR [8], 0.00053 ± 6e-05 µM. Besides, the “radioligand binding affinity (Ki, nM) MOR” value on MOR [8] is “subnanomolar”. For the same molecule, in the data set on male Swiss Webster mice [2], the ED50 was 4.08 mg/kg. For the same molecule, the “percent MPE” value with male Swiss Webster mice [2] is at least 80%.
Consider `O=C(/C=C/c1ccco1)N[C@H]1CC[C@@]2(O)[C@H]3Cc4cccc5c4[C@@]2(CCN3CC2CC2)[C@H]1O5` [Compound 18, 17-Cyclopropylmethyl-4,5α-epoxy-6α-[(2E)-3′-(furan-2″-yl)prop-2-enamido]-14β-hydroxymorphinan Hydrochloride], for which the values for the EC50 on KOR [3], on DOR [4] and on MOR [5] were 1.37 ± 0.089 µM, 1.24 ± 0.147 µM and 1.51 ± 0.948 µM, respectively. Further, the Emax stood at 85.2 ± 6.52% on KOR [3], 75 ± 5.1% on DOR [4] and 16 ± 2.91% on MOR [5]. In addition, the Ki on DOR [6] is 0.456 ± 0.0264 µM; on KOR [7] it was 0.249 ± 0.032 µM; at MOR [8], 0.107 ± 0.00837 µM. Further, the “selectivity ratio δ/κ” value on KOR [7] worked out at 2. The “antinociception compared to the vehicle group” value in the data set on male Swiss Webster mice [2] is “lack of significant antinociceptive effect”.
